Test results from ChEMBL document CHEMBL4152361, “Synthesis of oxidative metabolites of CRA13 and their analogs: Identification of CRA13 active metabolites and analogs thereof with selective CB2R affinity” (Bioorg Med Chem, 2018).

Key:
Cannabinoid receptor 1 [1] = target: T1, Cannabinoid receptor 1 (Homo sapiens, UniProt P21554); assay: Displacement of [3H]SR141716A from membrane bound human CB1 receptor at 100 uM after 1 hr by beta scintillation counting method relative to control
Cannabinoid receptor 1 [2] = target: T1, Cannabinoid receptor 1; assay: Displacement of [3H]SR141716A from membrane bound human CB1 receptor at 10 uM after 1 hr by beta scintillation counting method relative to control
Cannabinoid receptor 1 [3] = target: T1, Cannabinoid receptor 1; assay: Displacement of [3H]SR141716A from membrane bound human CB1 receptor after 1 hr by beta scintillation counting method
Cannabinoid receptor 2 [4] = target: T2, Cannabinoid receptor 2 (Homo sapiens, UniProt P34972); assay: Displacement of [3H]CP55940 from membrane bound human CB2 receptor at 100 uM after 1 hr by beta scintillation counting method relative to control
Cannabinoid receptor 2 [5] = target: T2, Cannabinoid receptor 2; assay: Displacement of [3H]CP55940 from membrane bound human CB2 receptor at 10 uM after 1 hr by beta scintillation counting method relative to control
Cannabinoid receptor 2 [6] = target: T2, Cannabinoid receptor 2; assay: Displacement of [3H]CP55940 from membrane bound human CB2 receptor after 1 hr by beta scintillation counting method
Homo sapiens [7] = species on record: Homo sapiens; assay: Selectivity ratio of IC50 for displacement of [3H]SR141716A from membrane bound human CB1 receptor to IC50 for displacement of [3H]CP55940 from membrane bound human CB2 receptor
Homo sapiens [8] = species on record: Homo sapiens; assay: Selectivity ratio of compound effect for displacement of [3H]CP55940 from membrane bound human CB2 receptor at 10 uM to compound effect for displacement of [3H]SR141716A from membrane bound human CB1 receptor at 10 uM
Homo sapiens [9] = species on record: Homo sapiens; assay: Selectivity ratio of compound effect for displacement of [3H]SR141716A from membrane bound human CB1 receptor at 100 uM to compound effect for displacement of [3H]CP55940 from membrane bound human CB2 receptor at 100 uM

T2 sequence (P34972 whole entry): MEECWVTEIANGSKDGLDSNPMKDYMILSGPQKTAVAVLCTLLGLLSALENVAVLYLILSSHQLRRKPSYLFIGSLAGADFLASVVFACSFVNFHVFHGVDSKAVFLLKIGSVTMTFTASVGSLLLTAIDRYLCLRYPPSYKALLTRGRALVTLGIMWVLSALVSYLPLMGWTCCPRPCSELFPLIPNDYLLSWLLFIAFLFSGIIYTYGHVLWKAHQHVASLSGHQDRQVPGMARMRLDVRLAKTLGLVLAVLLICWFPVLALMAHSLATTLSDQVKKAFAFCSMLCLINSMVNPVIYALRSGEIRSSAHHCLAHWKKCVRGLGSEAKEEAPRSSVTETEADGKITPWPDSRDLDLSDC
T1 sequence (P21554 whole entry): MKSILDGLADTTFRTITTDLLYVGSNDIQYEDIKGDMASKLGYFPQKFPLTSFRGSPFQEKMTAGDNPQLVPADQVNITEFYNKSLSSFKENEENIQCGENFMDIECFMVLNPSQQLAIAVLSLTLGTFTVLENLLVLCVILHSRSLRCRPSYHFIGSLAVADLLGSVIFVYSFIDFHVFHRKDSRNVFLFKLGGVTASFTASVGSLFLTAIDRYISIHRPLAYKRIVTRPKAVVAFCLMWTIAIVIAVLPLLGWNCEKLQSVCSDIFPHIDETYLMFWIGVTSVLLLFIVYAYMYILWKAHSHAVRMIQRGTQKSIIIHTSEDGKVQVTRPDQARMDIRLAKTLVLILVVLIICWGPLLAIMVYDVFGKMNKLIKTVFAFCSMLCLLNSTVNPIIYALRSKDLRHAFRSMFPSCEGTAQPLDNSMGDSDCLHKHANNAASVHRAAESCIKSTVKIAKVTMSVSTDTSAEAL

Row | SMILES | inhibition (Cannabinoid receptor 1 [1]) [%] | inhibition (Cannabinoid receptor 1 [2]) [%] | IC50 (Cannabinoid receptor 1 [3]) [µM] | inhibition (Cannabinoid receptor 2 [4]) [%] | inhibition (Cannabinoid receptor 2 [5]) [%] | IC50 (Cannabinoid receptor 2 [6]) [µM] | Ratio IC50 (Homo sapiens [7]) | Selectivity ratio (Homo sapiens [8]) | Selectivity ratio (Homo sapiens [9])
1 | O=C(O)CCCCOc1ccc(C(=O)c2cccc3ccccc23)c2ccccc12 | 20.5 | 13 | > 100 | 52.1 | 36.6 | 12.6 | > 7.92 | 2.81 | –
2 | O=C(c1cccc2ccccc12)c1ccc(OCCCCCCO)c2ccccc12 | – | 42.6 | > 10 | – | 46.9 | > 10 | – | 1.1 | –
3 | CCCCCOc1ccc(C(=O)c2cccc3ccccc23)c2ccccc12 | – | 64.2 | – | – | 64.2 | 5.3 | – | – | –
4 | O=C(c1cccc2ccccc12)c1ccc(OCCCCCO)c2ccccc12 | – | 35.8 | > 10 | – | 75.3 | 1.08 | > 9.26 | 2.1 | –
5 | O=C(O)CCCOc1ccc(C(=O)c2cccc3ccccc23)c2ccccc12 | 16 | – | > 100 | 5.36 | – | > 100 | – | – | 2.99
6 | COC(=O)CCCOc1ccc(C(=O)c2cccc3ccccc23)c2ccccc12 | 68.8 | 43.1 | 14.1 | 101 | 96.9 | 1.69 | 8.36 | 2.25 | –
7 | COC(=O)CCCCOc1ccc(C(=O)c2cccc3ccccc23)c2ccccc12 | 36.5 | 4.44 | > 100 | 85.6 | 11.9 | 47.7 | > 2.1 | 2.69 | –
8 | O=C(c1cccc2ccccc12)c1ccc(OCCCCO)c2ccccc12 | 72 | 31.2 | 17.9 | 89.9 | 91.7 | 5.05 | 3.55 | 2.93 | –
9 | O=C(c1cccc2ccccc12)c1ccc(OCCCO)c2ccccc12 | 55.6 | 21.3 | 100 | 78.5 | 37.4 | 14.7 | 6.81 | 1.76 | –
